Data on three compounds can be found in US11524950B2, “Treatment of immune-related and inflammatory diseases” (Celgene Corporation, priority 2012, dated 2022).

SMILES strings stand for the structures. Where two headings read alike, the source gives them in different places.

For test [1], the system named is IL-6. Put plainly: LPS-stimulated hPBMC cytokine production: IL-6. The note with it: Homo sapiens; LPS 1 ng/ml, 18 hours. It is filed as cell-based. On the procedure: (§1) 50 ml human buffy coat was aliquoted 25 ml each into two 50 ml conical tubes and 25 ml sterile HBSS was added to each conical tube. The tubes were gently mixed by inverting. Fifteen ml of room temperature Ficoll-Paque Plus (GE Healthcare (location); cat #17-1440-02) was aliquoted into four 50 ml conical tubes. Then 25 ml of the Buffy coat/HBSS mixture was layered gently and slowly on top of the Ficoll. The samples were centrifuged at 450 rpm for 35 minutes. The top layered containing plasma was pipetted off and discarded. The interface containing mononuclear cells was transferred into two 50 ml conical tubes. Both conical tubes were filled to total volume of 50 ml with HBSS and centrifuged at 1200 rpm for 10 minutes. The cells were washed again in HBSS and spun at 1000 rpm for 10 minutes. Cell pellet was resuspended with 20 ml RPMI complete medium (RPMI/5% human sera/1× pen/strep/glut) and counted.
(§2) One hundred μl (2×10^6/ml) of hPBMCs were added to each well of a 96 well flat-bottom plate (final cell count=2×10^5/well) and incubated at 37° C. for 1 hour. […] compound was added to each test well and twenty μl medium containing 2.5% DMSO was added to each control well ([DMSO]final=0.25%) and plate was incubated for 1 hour at 37° C. Cells were then stimulated with […] 2.5 ng/ml LPS ([LPS]final=1 ng/ml) and incubated for 18 hours at 37° C.
(§3) 50 μl supernatant from each well was transferred into 3 new round-bottomed 96 well plates and stored at −20° C. for Luminex analysis. Duplicate wells were performed for each sample.
(§4) Supernatant samples were analyzed for cytokines in multiplex format according to the manufacturer's instructions (Millipore, Billerica, Ma 01821) using a Luminex IS100 instrument. IL-12 and GM-CSF analyses were done in a two-plex format using neat supernatants while all other cytokines were done in a multiplex format using supernatants diluted 1:20. Data analysis was performed using Upstate Beadview software. […] The IC50 were performed using GraphPad Prism v5.00. […]

Test [2] concerns IL-8. The test can be described thus: LPS-stimulated hPBMC cytokine production: IL-8. Type of test: cell-based. The note with it: Homo sapiens; LPS 1 ng/ml, 18 hours. As for the experimental part:
as §1, §2, §3, §4

For test [3], the system named is IL-1β. Put plainly: LPS-stimulated hPBMC cytokine production: IL-1β. The note with it: Homo sapiens; LPS 1 ng/ml, 18 hours. Type of test: cell-based. On the procedure: as §1, §2, §3, §4
The test system of test [4] is GM-CSF. The test can be described thus: LPS-stimulated hPBMC cytokine production: GM-CSF. Type of test: cell-based. The note with it: Homo sapiens. As for the experimental part: as §1, §2, §3, §4
Test [5] relates to MIP-1β. The test can be described thus: LPS-stimulated hPBMC cytokine production: MIP-1β. Type of test: cell-based. The note with it: Homo sapiens; LPS 1 ng/ml, 18 hours. As for the experimental part: as §1, with “Fifteen ml of room temperature Ficoll-Paque Plus (GE Healthcare (location); cat #17-1440-02) was aliquoted into four 50 ml conical tubes.” left out
Cells were then stimulated with […] 2.5 ng/ml LPS ([LPS]final=1 ng/ml) and incubated for 18 hours at 37° C.
as §3
IL-12 and GM-CSF analyses were done in a two-plex format using neat supernatants while all other cytokines were done in a multiplex format using supernatants diluted 1:20. Data analysis was performed using Upstate Beadview software. […] The IC50 were performed using GraphPad Prism v5.00. The data values represent the mean±SEM (standard error of the mean) of n (number of experiments in duplicate).

The subject of test [6] is MCP-1. The test can be described thus: LPS-stimulated hPBMC cytokine production: MCP-1 enhancement. It is filed as cell-based, human. The conditions noted are these: at 0.1 μM. On the procedure:
as §1, §2, §3, §4

Test [7] relates to RANTES. Put plainly: LPS-stimulated hPBMC cytokine production: RANTES enhancement. The note with it: at 0.1 μM. It is filed as cell-based, human. As for the experimental part: as §1, §2, §3, §4
For test [8], the system named is Human umbilical vascular endothelial cells. Put plainly: Human umbilical vascular endothelial cell invasion assay. It is filed as cell-based. The note with it: for IC50: Homo sapiens; for VEGF-, bFGF-, and HGF-induced HUVEC invasion: dose-dependent. On the procedure:
Human Umbilical Vascular Endothelial Cell Invasion Assay: In the HUVEC invasion assay, the concentration of human fibronectin is optimized to provide a suitable protein structure for adherent cells to attach to the membrane and allow free migration in response to an angiogenic stimulus (e.g. VEGF, bFGF, or HGF) in the lower chamber of the insertplate. HUVECs were starved in 0.1% BSA EBM2 medium for 6 hours after washing with the same medium 3 times. The cells were then trypsinized and centrifuged to remove the remaining trypsin. Then ˜0.5 to 1×10^6 cells in 125 μL/well and 125 μL of […] serially diluted compounds (10, 1, 0.1, 0.01, 0.001 μM) were added to the upper chamber of the BD Falcon 24-well and 96-well insert plates in duplicate and incubated for […]. (The plates contain a fluorescence blocking, microporous [3.0 μm pore size] PET membrane that has been evenly coated with human fibronectin.) Seven hundred fifty microliters of a 1.33×stock solution of VEGF (final concentration of 25 ng/mL), bFGF (final concentration of 10 ng/mL), or HGF (final concentration of 25 ng/mL) were then added to the lower chamber. The cells were incubated for 22±1 hours at 37° C. The migrated cells were stained with calcein AM at […] in HBSS containing 2% FBS, using 500 μL/well in 24-well plates and 200 μL/well in 96-well plates. The plates were incubated at 37° C. for 90 minutes and read in a fluorescence plate reader.
The percentage inhibition of cell proliferation, tube formation, migration, and invasion was calculated by subtracting the result for unstimulated DMSO control from test sample results, averaging all replicates, and normalizing to the growth factor-stimulated DMSO control (0% inhibition). The IC50 values were calculated by using GraphPad Prism 5.0.

[9] abbreviates: Endothelial cell, HGF 25 ng/mL, read-out: HGF-induced invasion IC50 Values.
The mark [10] stands for this setting: Endothelial cell, VEGF 25 ng/mL, read-out: VEGF-induced invasion IC50 Values.
Where [11] appears, read: Endothelial cell, bFGF 10 ng/mL, read-out: bFGF-induced invasion IC50 Values.
The mark [12] stands for this setting: HUVEC, growth factor not given, read-out: IC50 (HUVEC invasion).
Where [13] appears, read: LPS 1 ng/ml, 18 hours, read-out: GM-CSF IC50.

Broadly, the IC50 is the concentration that inhibits the measured activity by half. As to `O=C1CCC(N2Cc3c(OCc4ccc(CN5CCOCC5)cc4)cccc3C2=O)C(=O)N1` (racemic) [Racemate, 3-[4-(4-morphlin-4-ylmethylbenzyloxy)-1-oxo-1,3-dihydro-isoindo-2-yl]piperidine-2,6-dione], the IC50 in test [1] is 10 nM; in test [2] it was greater than 10000 nM; in test [3], 0.85 nM; in test [4] (18 h, read-out: GM-CSF IC50 (μM)), 0.0092 µM; in test [5] it was greater than 10000 nM; in test [8] (setting [9]), 590 nM. Besides, the IC50 in test [8] (setting [10]) worked out at 0.14 nM; in test [8] (setting [11]), 0.42 nM; in test [8] (setting [12]), 0.4 nM. Further, the “MCP-1 Mean % of Control” value in test [6] was 208 % of control. Further, the “RANTES Mean % of Control” value in test [7] is given as 153 % of control. For the same compound, the “VEGF-, bFGF-, and HGF-induced HUVEC invasion” value in test [8] was “significantly inhibited”.
As to `O=C1CC[C@@H](N2Cc3c(OCc4ccc(CN5CCOCC5)cc4)cccc3C2=O)C(=O)N1` [R-enantiomer, (R)-3-[4-(4-morphlin-4-ylmethylbenzyloxy)-1-oxo-1,3-dihydro-isoindo-2-yl]piperidine-2,6-dione], the IC50 in test [1] was 83 nM; in test [2] it was greater than 10000 nM; in test [3], 6.2 nM; in test [4] (setting [13]), 0.039 µM; in test [5], greater than 10000 nM; in test [8] (setting [9]) it was 450 nM. Also, the IC50 in test [8] (setting [10]) was less than 0.1 nM; in test [8] (setting [11]), 13 nM; in test [8] (setting [12]) it was 13 nM. In test [6], the “MCP-1 Mean % of Control” value is 223 % of control. The “RANTES Mean % of Control” value in test [7] was 151 % of control. Moreover, in test [8], the “VEGF-, bFGF-, and HGF-induced HUVEC invasion” value is “significantly inhibited”.
As to `O=C1CC[C@H](N2Cc3c(OCc4ccc(CN5CCOCC5)cc4)cccc3C2=O)C(=O)N1` [Test compound, (S)-3-[4-(4-morphlin-4-ylmethylbenzyloxy)-1-oxo-1,3-dihydro-isoindo-2-yl]piperidine-2,6-dione], the IC50 in test [1] is 3.8 nM; in test [2], greater than 10000 nM; in test [3], 0.46 nM; in test [4] (setting [13]), 0.0022 µM; in test [5], greater than 10000 nM; in test [8] (setting [9]) it was 19 nM. Moreover, the IC50 in test [8] (setting [10]), in test [8] (setting [11]) and in test [8] (setting [12]) was less than 0.1 nM throughout. Also, the “MCP-1 Mean % of Control” value in test [6] is 233 % of control. Also, the “RANTES Mean % of Control” value in test [7] was 153 % of control. Further, the “VEGF-, bFGF-, and HGF-induced HUVEC invasion” value in test [8] is on record as “significantly inhibited”.
